Measurements published in patent US20040022744A1, “Method of treating dental caries and remineralizing lesions” (priority 2001, published 2004).

Tests used:
[1] = system: microflora from primary root carious lesions (PRCL); assay: Ozone effect on microflora from primary root caries ex-vivo; assay type: cell-based; details: for Mean ± SE of Total cfu (Log10): after 10 seconds of ozone treatment
Excerpt: Primary root carious lesions (PRCL) are a major clinical problem. The aim of this study was to establish if ozone could achieve effective microbial killing in PRCL. An ozone producing generator (Purezone Ltd., Ipswich, U.K.) was used in this ex-vivo study assessing the use of ozone on PRCL. In this study, soft PRCL requiring restoration were used as these are the most severe type of lesion found in humans. 20 freshly extracted teeth with PRCL requiring restoration were used. After plaque removal using a hand held standard fine nylon fiber sterile toothbrush with sterile water as a lubricant to cleanse the surface, each tooth was then isolated using sterile cotton wool rolls and dried using a dry sterile cotton wool roll. […] Each sample was weighed and immediately placed in 1 ml of Fastidious Anaerobe Broth (FAB). To each 1 ml of FAB containing a biopsy o carious or ozone treated carious dentine, sterile glass beads were added. They were vortexed for 30 seconds to facilitate the extraction of any micro-organisms from the carious dentine and disperse any aggregates. After decimal dilution with FAB, […] of these was spread on Fastidious Anaerobe Agar (LabM, Bury, Lancs., U.K.) supplemented with 5% (V/V) horse blood in an anaerobic chamber at 37° C. for four days. The mean±SE number of each colony type was counted and calculated.
The procedure of Example 2 was repeated except that ozonized water was applied to the lesion for 20 seconds.
The aims of these studies were to evaluate the efficiency of ozone on primary root caries and associated micro-organisms (Streptococcus sobrinus; TH 21 Streptococcus mutans; NCTC 10449). In study 1, 40 soft primary root carious lesions (PRCLs) from freshly extracted teeth were used and randomly divided into two groups to test the exposure to ozone for either 10 or 20 seconds. There was a significant (p<0.001) difference (Mean±SE) between the control samples for either 10 seconds (log10 5.91±0.15) or 20 seconds (log10 6.18±0.21) and ozone treated samples for either 10 seconds (log10 3.57±0.37) or 20 seconds (log10 3.77±0.42). In study 2, 40 sterile saliva coated glass beads were put into bijoux bottles with 3 mls of Todd Hewitt broth for control and test groups. S. sobrinus and S. mutans were inoculated and incubated anaerobically overnight. Each glass bead was washed with 2 mls of PBS. Immediately, 10 seconds of ozone was applied to the glass beads in the test groups. Subsequently, each glass bead in the test and control groups was placed in 3 mls of Todd Hewitt broth with six more sterile glass beads and were vortexed for 30 seconds. […] The number of each colony type was counted and calculated. […]

[2] = system: Streptococcus sobrinus; TH 21; assay: Ozone on micro-organisms on saliva coated glass beads; assay type: cell-based; details: S. sobrinus on saliva coated glass beads, 10 seconds of ozone
Excerpt: The aims of these studies were to evaluate the efficiency of ozone on primary root caries and associated micro-organisms (Streptococcus sobrinus; TH 21 Streptococcus mutans; NCTC 10449). In study 1, 40 soft primary root carious lesions (PRCLs) from freshly extracted teeth were used and randomly divided into two groups to test the exposure to ozone for either 10 or 20 seconds. There was a significant (p<0.001) difference (Mean±SE) between the control samples for either 10 seconds (log10 5.91±0.15) or 20 seconds (log10 6.18±0.21) and ozone treated samples for either 10 seconds (log10 3.57±0.37) or 20 seconds (log10 3.77±0.42). In study 2, 40 sterile saliva coated glass beads were put into bijoux bottles with 3 mls of Todd Hewitt broth for control and test groups. S. sobrinus and S. mutans were inoculated and incubated anaerobically overnight. Each glass bead was washed with 2 mls of PBS. Immediately, 10 seconds of ozone was applied to the glass beads in the test groups. Subsequently, each glass bead in the test and control groups was placed in 3 mls of Todd Hewitt broth with six more sterile glass beads and were vortexed for 30 seconds. After decimal dilutions, […] were spread on blood agar plates supplemented with 5% (V/V) horse blood and placed in an anaerobic chamber at 37° C. for two days. The number of each colony type was counted and calculated. […]

O=[O+][O-] [ozone]
percentage of micro-organisms killed ([1]; 10 seconds of ozone, PRCL ex vivo): more than 99% | Mean ± SE of Total cfu (Log10) ([1]; soft PRCL of extracted teeth): 3.57±0.37 Log10 | Mean ± SE of Total cfu (Log10) ([1]; soft PRCL of extracted teeth, listed as Ozone): 3.57 ± 0.37 Log10 | Total cfu (log10), mean±SE ([1]; after 20 seconds of ozone treatment, soft PRCL of extracted teeth): 3.77±0.42 log10 | colony count (log10), Mean ±SE [2]: 1.09±0.36 log10
